Patent US20250277012A1 (Protagonist Therapeutics, Inc., priority 2021, published 2025)
Starred links: 1 amine or outer side, 2 acyl side, 3 side chain; linkers in the order of their positions; H or OH if unused. Positions of bridges follow the written chain, without caps; N, C: chain ends. Non-standard residues stand in square brackets, D forms with d. Residues, ends and D or L forms follow the SMILES beside them. Groups on a side chain read outwards from the residue. *: point of attachment. X1 = C[N+](C)(CCNC(=O)CCCCCCCCCCCCCCCCC(=O)O)CC(=O)*; C18 diacid = O=C(O)CCCCCCCCCCCCCCCCC(=O)*; Dip = N[C@H](C(=O)O)C(c1ccccc1)c1ccccc1; X6 = O=C([C@H](CC1N=NN=N1)N[*:1])[*:2]; β3hF = N[C@H](CC(=O)O)Cc1ccccc1; NMeK = CN[C@@H](CCCCN)C(=O)O; Pen = CC(C)(S)[C@H](N)C(=O)O; Isovaleryl = CC(C)CC(=O)*; hCys = N[C@@H](CCS)C(=O)O; Dap = NC[C@H](N)C(=O)O; AEEA = NCCOCCOCC(=O)O

Tests used:
ferroportin [1] = biological target: T1, ferroportin (Homo sapiens, UniProt Q9NP59); assay: FPN activity assay: ferroportin-GFP internalization/degradation in HEK293 cells; format: cell-based; parameters: expressed in transfected cells; details: ferroportin-GFP internalization/degradation, HEK293 cells; Table 6E; read-out: FPN IC50
T1 sequence (Q9NP59 1-571): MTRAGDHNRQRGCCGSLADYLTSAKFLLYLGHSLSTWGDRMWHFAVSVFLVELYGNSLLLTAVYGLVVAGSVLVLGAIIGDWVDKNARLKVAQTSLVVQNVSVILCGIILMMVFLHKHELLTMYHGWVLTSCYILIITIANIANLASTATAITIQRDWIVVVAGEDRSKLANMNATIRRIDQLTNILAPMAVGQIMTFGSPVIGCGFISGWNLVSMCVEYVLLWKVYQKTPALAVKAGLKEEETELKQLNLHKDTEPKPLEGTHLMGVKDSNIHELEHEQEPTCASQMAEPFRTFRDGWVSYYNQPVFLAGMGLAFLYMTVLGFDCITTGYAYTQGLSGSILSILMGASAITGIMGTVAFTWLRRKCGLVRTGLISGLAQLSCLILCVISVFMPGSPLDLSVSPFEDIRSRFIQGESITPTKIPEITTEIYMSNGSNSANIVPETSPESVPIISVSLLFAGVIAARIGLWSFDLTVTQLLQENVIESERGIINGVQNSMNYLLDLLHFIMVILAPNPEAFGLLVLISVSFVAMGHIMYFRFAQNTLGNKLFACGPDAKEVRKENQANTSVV
Method: Following internalization, the ferroporin protein is degraded.
A retro inverse peptide is a peptide with a reversed sequence in all D amino acids. An example is that Hy-Glu-Thr-His-NH2 becomes Hy-DHis-DThr-DGlu-NH2. The EC50 of these reference compounds for ferroportin internalization/degradation was determined according to the FPN activity assay described above. These peptides served as control standards.

ferroportin [2] = biological target: T1, ferroportin; assay: T47D cell-based ferroportin internalization assay in presence of mouse serum albumin (MSA); parameters: a human breast carcinoma adherent cell line which endogenously expresses ferroportin; host or cells: T47D; details: T47D internalization assay in presence of mouse serum albumin (MSA); Table 6E
Procedure, shortened: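 Peptide potency for inducing ferroportin internalization was measured in T47D cells in the presence of serum albumin. Cells grown in RPMI with fetal bovine serum were seeded in 96-well plates at 80-100 k cells per well in 100 ul and rested overnight. Dilution series of test peptides were preincubated 30 min at room temperature, then added to the cells after the medium was aspirated.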

Row | SMILES | DC50 (ferroportin [1]) | IC50 (ferroportin [2])
1 | CC(C)CC(=O)N[C@@H](CCC(=O)O)C(=O)N[C@H](C(=O)N[C@@H](Cc1c[nH]cn1)C(=O)N[C@H](C(=O)N1CCC[C@H]1C(=O)N[C@H]1CCSSCC[C@@H](C(=O)N(C)[C@@H](CCCCNC(=O)COCCOCCNC(=O)COCCOCCNC(=O)[C@H](CN)NC(=O)CCCCCCCCCCCCCCCCC(=O)O)C(=O)N[C@H](CC(=O)N[C@H](CCCCN)C(N)=O)Cc2ccccc2)NC1=O)C(c1ccccc1)c1ccccc1)[C@@H](C)O [compound 269] (Isovaleryl-ETH[Dip]P[hCys][hCys][NMeK]([AEEA-AEEA-Dap-C18 diacid])[β3hF][dK]-NH2; disulfide 6-7) | 10 to 100 nM | 10 to 100 nM
2 | CC(C)CC(=O)N[C@@H](CCC(=O)O)C(=O)N[C@H](C(=O)N[C@@H](Cc1c[nH]cn1)C(=O)N[C@H](C(=O)N1CCC[C@H]1C(=O)N[C@H]1CSSCC[C@@H](C(=O)N(C)[C@@H](CCCCNC(=O)COCCOCCNC(=O)COCCOCCNC(=O)[C@H](CN)NC(=O)CCCCCCCCCCCCCCCCC(=O)O)C(=O)N[C@H](CC(=O)N[C@H](CCCCN)C(N)=O)Cc2ccccc2)NC1=O)C(c1ccccc1)c1ccccc1)[C@@H](C)O [compound 270] (Isovaleryl-ETH[Dip]PC[hCys][NMeK]([AEEA-AEEA-Dap-C18 diacid])[β3hF][dK]-NH2; disulfide 6-7) | 10 to 100 nM | 10 to 100 nM
3 | CC(C)CC(=O)N[C@@H](CCC(=O)O)C(=O)N[C@H](C(=O)N[C@@H](Cc1c[nH]cn1)C(=O)N[C@H](C(=O)N1CCC[C@H]1C(=O)N[C@H]1CSSC(C)(C)[C@@H](C(=O)N[C@@H](CCCCNC(=O)COCCOCCNC(=O)COCCOCCNC(=O)[C@H](CN)NC(=O)CCCCCCCCCCCCCCCCC(=O)O)C(=O)N[C@H](CC(=O)N[C@H](CCCCN)C(N)=O)Cc2ccccc2)NC1=O)C(c1ccccc1)c1ccccc1)[C@@H](C)O [compound 272] (Isovaleryl-ETH[Dip]PC[Pen]K([AEEA-AEEA-Dap-C18 diacid])[β3hF][dK]-NH2; disulfide 6-7) | 10 to 100 nM | 10 to 100 nM
4 | CC(C)CC(=O)N[C@@H](CCC(=O)O)C(=O)N[C@H](C(=O)N[C@@H](Cc1cnc[nH]1)C(=O)N[C@H](C(=O)N1CCC[C@H]1C(=O)N[C@H]1CSSC[C@@H](C(=O)N(C)[C@@H](CCCCNC(=O)COCCOCCNC(=O)COCCOCCNC(=O)[C@H](CN)NC(=O)CCCCCCCCCCCCCCCCC(=O)O)C(=O)N[C@H](C(=O)N(C)[C@@H](CCCCN)C(N)=O)C(c2ccccc2)c2ccccc2)NC1=O)C(c1ccccc1)c1ccccc1)[C@@H](C)O [compound 275] (Isovaleryl-ETH[Dip]PCC[NMeK]([AEEA-AEEA-Dap-C18 diacid])[Dip][NMeK]-NH2; disulfide 6-7) | 10 to 100 nM | 10 to 100 nM
5 | CC(C)CC(=O)N[C@@H](CCC(=O)O)C(=O)N[C@H](C(=O)N[C@@H](Cc1cnc[nH]1)C(=O)N[C@H](C(=O)N1CCC[C@H]1C(=O)N[C@H]1CSSC[C@@H](C(=O)N(C)[C@@H](CCCCNC(=O)COCCOCCNC(=O)COCCOCCNC(=O)C[N+](C)(C)CCNC(=O)CCCCCCCCCCCCCCCCC(=O)O)C(=O)N[C@H](CC(=O)N[C@H](CCCCN)C(N)=O)Cc2ccccc2)NC1=O)C(c1ccccc1)c1ccccc1)[C@@H](C)O [compound 283] (Isovaleryl-ETH[Dip]PCC[NMeK]([AEEA-AEEA-X1])[β3hF][dK]-NH2; disulfide 6-7) | 10 to 100 nM | 10 to 100 nM
6 | CC(C)CC(=O)N[C@@H](CC1N=NN=N1)C(=O)N[C@H](C(=O)N[C@@H](Cc1cnc[nH]1)C(=O)N[C@H](C(=O)N1CCC[C@H]1C(=O)N[C@H]1CSSC[C@@H](C(=O)N(C)[C@@H](CCCCNC(=O)COCCOCCNC(=O)COCCOCCNC(=O)[C@H](CN)NC(=O)CCCCCCCCCCCCCCCCC(=O)O)C(=O)N[C@H](CC(=O)N[C@H](CCCCN)C(N)=O)Cc2ccccc2)NC1=O)C(c1ccccc1)c1ccccc1)[C@@H](C)O [compound 288] (Isovaleryl-[X6]TH[Dip]PCC[NMeK]([AEEA-AEEA-Dap-C18 diacid])[β3hF][dK]-NH2; disulfide 6-7) | 10 to 100 nM | 10 to 100 nM
